Where two headings read alike, the source gives them in different places.
Assays:
[1] = Bioavailability testing, IV treatment (whole blood, LC/MS); format: in vivo; conditions: male CD-1 mice; for AUC: whole blood; for clearance / Vd: mouse, in vivo; for Vd: read-out: Vdss
Procedure: (§1) Compositions comprising the free base of 1-Na-PP1 and 1-NM-PP1 (Control) and the hydrochloride salt of 1-Na-PP1 and 1-NM-PP1 formulated with Vitamin E TPGS are administered to male CD-1 mice intraperitoneally (IP) and intravenously (IV). Whole blood samples were collected from three animals per time point and prior via cardiac puncture into EDTA tubes and placed on wet ice. Samples were analyzed after drying and predissolution in 0.1:20:80 formic acid:methanol:water by liquid chromatography/mass spectrometry using an Xterra C182.5 micromenter particle size analytical column (15 mm×2.1 mm).

[2] = Bioavailability testing, IP treatment (whole blood, LC/MS); format: in vivo; conditions: 0.793 mg/Kg, male CD-1 mice; for AUC / Cmax: whole blood; for Tmax / bioavailability / half-life / Cmax: mouse, in vivo; for half-life: read-out: T½ (converted)
Procedure: as §1

SMILES	AUC/Dose ([1]; 0.793 mg/Kg) [ng·h/mL/µg/kg]	T½ ([1]; 0.793 mg/Kg) [min]	AUC ([1]; 0.793 mg/Kg) [ng·h/mL]	clearance ([1]; 0.793 mg/Kg) [mL/min/kg]	Vd ([1]; 0.793 mg/Kg) [L/kg]	AUC/Dose [2] [ng·h/mL/µg/kg]	AUC [2] [ng·h/mL]	Tmax [2] [min]	bioavailability [2] [%]	half-life [2] [min]	Cmax [2] [ng/mL]	AUC/Dose ([1]; 0.269 mg/Kg) [ng·h/mL/µg/kg]	T½ ([1]; 0.269 mg/Kg) [min]	AUC ([1]; 0.269 mg/Kg) [ng·h/mL]	clearance ([1]; 0.269 mg/Kg) [mL/min/kg]	Vd ([1]; 0.269 mg/Kg) [L/kg]
CC(C)(C)n1nc(Cc2cccc3ccccc23)c2c(N)ncnc21 [1-NM-PP1 (Control)]	0.13	23.4	37.08	130	4.1	0.16	134.84	4.98	100	85.2	90.6					
CC(C)(C)n1nc(-c2cccc3ccccc23)c2c(N)ncnc21 [1-Na-PP1 (Control), 1-tert-butyl-3-naphthalen-1-yl-1H-pyrazolo[3,4-d]pyrimidin-4-ylamine]						0.13	99.37	4.98	100	90.6	55	0.12	27.6	32.14	133	5.3

Source: patent publication US20030180924A1, “Formulation of certain pyrazolo [3,4,-d] pyrimidines as kinase modulators” (priority 2002, published 2003)
